# Assay results as given in ChEMBL document CHEMBL5244272 (Eur J Med Chem, 2021).
# Columns and labels:
# Plasmodium berghei [1] = experiment: Antimalarial activity against Plasmodium berghei K173 infected in mouse; format: functional
# Plasmodium falciparum [2] = experiment: Antimalarial activity against chloroquine-resistant Plasmodium falciparum K1; format: functional, organism-based
# Plasmodium falciparum [3] = experiment: Antimalarial activity against chloroquine-sensitive Plasmodium falciparum HB3; format: functional, organism-based
# Plasmodium falciparum [4] = experiment: Antimalarial activity against Plasmodium falciparum RKL9; format: functional, organism-based
# Plasmodium falciparum [5] = experiment: Antimalarial activity against Plasmodium falciparum 3D7; format: functional, organism-based
# Plasmodium falciparum [6] = experiment: Potency index, ratio of artemisinin IC50 to test compound IC50 for Plasmodium falciparum D6; format: functional
# Plasmodium falciparum [7] = experiment: Potency index, ratio of artemisinin IC50 to test compound IC50 for Plasmodium falciparum W2; format: functional
# Plasmodium yoelii = experiment: Antimalarial activity against Plasmodium yoelii infected in mouse; format: functional
# Plasmodium berghei [8] = experiment: Antimalarial activity against Plasmodium berghei infected in mouse; format: functional; settings: Plasmodium berghei
# Plasmodium falciparum [9] = experiment: Antimalarial activity against chloroquine sensitive Plasmodium falciparum FCR-3; format: functional, organism-based
# Plasmodium falciparum [10] = experiment: Antimalarial activity against ART-resistant Plasmodium falciparum harboring R539T mutant assessed as increase in survival at 700 nM; format: functional
# Plasmodium falciparum [11] = experiment: Antimalarial activity against late blood stage Plasmodium falciparum NF54 gametocytes; format: functional, organism-based
# Plasmodium falciparum [12] = experiment: Antimalarial activity against Plasmodium falciparum Dd2; format: functional, organism-based
# Plasmodium falciparum [13] = experiment: Antimalarial activity against Plasmodium falciparum NF54; format: functional, organism-based
# Plasmodium falciparum [14] = experiment: Antimalarial activity against Plasmodium falciparum K1; format: functional, organism-based
# Plasmodium berghei [15] = experiment: Antimalarial activity against Plasmodium berghei infected in sc dosed mouse; format: functional; settings: for ED50: Plasmodium berghei
# Plasmodium berghei [16] = experiment: Antimalarial activity against Plasmodium berghei infected in po dosed mouse; format: functional
# Plasmodium falciparum [17] = experiment: Antimalarial activity against chloroquine-sensitive Plasmodium falciparum NF54; format: functional, organism-based
compound,measurement,setting,value
C[C@@H]1CC[C@H]2[C@@H](C)C(Nc3ccc(C(=O)O)cc3)O[C@@H]3O[C@]4(C)CC[C@@H]1[C@]32OO4 (some centres undefined),SD50,Plasmodium berghei [1],1.36 mg/kg/day
COC(=O)CC[C@@H](C)[C@H]1CC[C@H]2[C@@H]3CC[C@@H]4CC5(CC[C@]4(C)[C@H]3C[C@H](OC(C)=O)[C@]12C)OOC(C)(C(F)(F)F)O5 (some centres undefined),IC50,Plasmodium falciparum [2],> 231 nM
CNCCO[C@H]1O[C@@H]2O[C@]3(C)CC[C@H]4[C@H](C)CC[C@@H]([C@H]1C)[C@@]24OO3,IC50,Plasmodium falciparum [2],2.4 nM
same,IC50,Plasmodium falciparum [3],2.7 nM
CC12C=CC(=O)CC1OC(c1c[nH]c3ccccc13)OO2 (centres undefined),IC50,Plasmodium falciparum [4],1170 nM
same,IC50,Plasmodium falciparum [5],1240 nM
CCN(Cc1cc(C2(C)OOC(c3c[nH]c4ccccc34)OO2)ccc1O)c1ccccc1 (centres undefined),IC50,Plasmodium falciparum [4],8.19 µg/mL
COC(=O)/C=C/N1C(=O)[C@H](C)[C@@H]2CC[C@@H](C)[C@@H]3CC[C@]4(C)OO[C@]32[C@H]1O4,Ratio IC50,Plasmodium falciparum [6],2
same,Ratio IC50,Plasmodium falciparum [7],1.2
CC1(c2ccccc2)OOC(c2ccccc2)(c2ccccc2)OO1,IC50,Plasmodium falciparum [4],3.91 µg/mL
C[C@H]1[C@@H](CCN2CCN(c3cccc(C(F)(F)F)c3)CC2)O[C@@H]2O[C@]3(C)CC[C@H]4[C@H](C)CC[C@@H]1[C@@]24OO3,ED90,Plasmodium yoelii,< 10 mg/kg
C[C@H]1[C@@H](Oc2ccc(C(F)(F)F)cc2)O[C@@H]2O[C@]3(C)CC[C@H]4[C@H](C)CC[C@@H]1[C@@]24OO3,ED50,Plasmodium berghei [8],2.12 mg/kg
CC1(OCc2ccccc2)CCC2CC1OO[C@]2(/C=C\c1ccc(Cl)cc1)c1ccccc1 (some centres undefined),IC50,Plasmodium falciparum [2],23 nM
C[C@H]1[C@H](n2cc(-c3ccccc3C(F)(F)F)nn2)O[C@@H]2O[C@]3(C)CC[C@H]4[C@H](C)CC[C@@H]1[C@@]24OO3,IC50,Plasmodium falciparum [9],4.6 nM
C[C@@H]1CC[C@H]2[C@@H](C)C(=O)N(CC(=O)c3ccccc3)[C@@H]3O[C@]4(C)CC[C@@H]1[C@@]23OO4,Ratio IC50,Plasmodium falciparum [6],1.8
same,Ratio IC50,Plasmodium falciparum [7],1.8
CCN(Cc1cc(C2(C)OOC(c3ccccc3O)OO2)ccc1O)c1ccccc1 (centres undefined),IC50,Plasmodium falciparum [4],5.3 µg/mL
c1cc([C@H]2CC[C@]3(CC2)OOC2(O3)C3CC4CC(C3)CC2C4)ccc1OCCN1CCOCC1 (some centres undefined),Activity,Plasmodium falciparum [10],<0.01%
C[C@H]1[C@H](n2cc(-c3ccc(F)cc3)nn2)O[C@@H]2O[C@]3(C)CC[C@H]4[C@H](C)CC[C@@H]1[C@@]24OO3,IC50,Plasmodium falciparum [9],1.4 nM
C[C@H]1[C@H](NS(=O)(=O)N2CCN(c3ccccn3)CC2)O[C@@H]2O[C@]3(C)CC[C@H]4[C@H](C)CC[C@@H]1[C@@]24OO3,IC50,Plasmodium falciparum [11],0.04 nM
C[C@@H]1CC[C@H]2[C@@H](C)C(Nc3cccc(Cl)c3)O[C@@H]3O[C@]4(C)CC[C@@H]1[C@]32OO4 (some centres undefined),SD50,Plasmodium berghei [1],1.62 mg/kg/day
C[C@H]1[C@H](n2cc(-c3cccc(Cl)c3)nn2)O[C@@H]2O[C@]3(C)CC[C@H]4[C@H](C)CC[C@@H]1[C@@]24OO3,IC50,Plasmodium falciparum [9],1.3 nM
C[C@@H]1CC[C@H]2[C@@H](C)C(Nc3ccc(Cl)cc3)O[C@@H]3O[C@]4(C)CC[C@@H]1[C@]32OO4 (some centres undefined),SD50,Plasmodium berghei [1],1.77 mg/kg/day
C[C@H]1[C@H](N2CCN(C(=O)c3ccc(F)cc3)CC2)O[C@@H]2O[C@]3(C)CC[C@H]4[C@H](C)CC[C@@H]1[C@@]24OO3,IC50,Plasmodium falciparum [12],1.5 nM
same,IC50,Plasmodium falciparum [13],1.06 nM
same,IC50,Plasmodium falciparum [14],2.1 nM
same,IC50,Plasmodium falciparum [11],0.6 nM
CCCCCC[C@H]1C(=O)O[C@@H]2O[C@]3(C)CC[C@H]4[C@H](C)CC[C@@H]1[C@@]24OO3,IC100,Plasmodium berghei [15],8 mg/kg/day
Cc1ccc([C@@H]2O[C@@H]3O[C@]4(C)CC[C@H]5[C@H](C)CC[C@@H]([C@H]2C)[C@@]35OO4)o1,ED50,Plasmodium berghei [15],0.9 mg/kg
COc1cc(C2OOC3(C)C=CC(=O)CC3O2)ccc1O (centres undefined),IC50,Plasmodium falciparum [4],1060 nM
same,IC50,Plasmodium falciparum [5],1240 nM
C[C@H]1[C@@H](CC(O)C(C)(C)C)O[C@@H]2O[C@]3(C)CC[C@H]4[C@H](C)CC[C@@H]1[C@@]24OO3 (some centres undefined),Ratio IC50,Plasmodium falciparum [6],5.4
same,Ratio IC50,Plasmodium falciparum [7],6.8
C[C@H]1[C@H](c2cccn2C)O[C@@H]2O[C@]3(C)CC[C@H]4[C@H](C)CC[C@@H]1[C@@]24OO3,ED50,Plasmodium berghei [15],0.7 mg/kg
same,ED90,Plasmodium berghei [16],8.5 mg/kg
COC(=O)CC[C@@H](C)[C@H]1CC[C@H]2[C@@H]3CC[C@@H]4CC5(CC[C@]4(C)[C@H]3C[C@H](OC(C)=O)[C@]12C)OOC(c1ccccc1)(C(F)(F)F)O5 (some centres undefined),IC50,Plasmodium falciparum [2],> 231 nM
CC1CC2CCC(C1)[C@@](C)(/C=C/[C@@H](O)C(C)(C)O)OO2 (some centres undefined),ED50,Plasmodium yoelii,95 mg/kg
same,IC50,Plasmodium falciparum [14],56 nM
CCN(CC)Cc1ccc(CO[C@H]2O[C@@H]3O[C@]4(C)CC[C@H]5[C@H](C)CC[C@@H]([C@H]2C)[C@@]35OO4)cc1,IC50,Plasmodium falciparum [2],1.4 nM
same,IC50,Plasmodium falciparum [3],3.1 nM
CC1(C)CC(O)(COc2ccc([C@H]3CC[C@]4(CC3)OOC3(O4)C4CC5CC(C4)CC3C5)cc2)CC(C)(C)N1 (some centres undefined),Activity,Plasmodium falciparum [10],<0.01%
C[C@H]1[C@H](N2CCN(S(=O)(=O)c3cccc(C(F)(F)F)c3)CC2)O[C@@H]2O[C@]3(C)CC[C@H]4[C@H](C)CC[C@@H]1[C@@]24OO3,IC50,Plasmodium falciparum [11],0.4 nM
C[C@H]1[C@@H](CCOCc2ccccc2F)O[C@@H]2O[C@]3(C)CC[C@H]4[C@H](C)CC[C@@H]1[C@@]24OO3,ED50,Plasmodium berghei [8],5.08 mg/kg
c1cc([C@H]2CC[C@]3(CC2)OOC2(O3)C3CC4CC(C3)CC2C4)ccc1OCCC1CCNCC1 (some centres undefined),Activity,Plasmodium falciparum [10],<0.01%
CCC(O)C[C@H]1O[C@@H]2O[C@]3(C)CC[C@H]4[C@H](C)CC[C@@H]([C@H]1C)[C@@]24OO3 (some centres undefined),Ratio IC50,Plasmodium falciparum [6],5.8
same,Ratio IC50,Plasmodium falciparum [7],4.8
C[C@H]1[C@H](OC(=O)c2cccc([N+](=O)[O-])c2)O[C@@H]2O[C@]3(C)CC[C@H]4[C@H](C)CC[C@@H]1[C@@]24OO3,IC50,Plasmodium falciparum [17],10.6 nM
C[C@@H]1CC[C@H]2[C@@H](C)C(=O)N(/C=C\C#N)[C@@H]3O[C@H]4CC[C@@H]1[C@@]23OO4,Ratio IC50,Plasmodium falciparum [6],2.7
same,Ratio IC50,Plasmodium falciparum [7],1.7
C[C@H]1[C@@H](CCOCc2cccc(F)c2)O[C@@H]2O[C@]3(C)CC[C@H]4[C@H](C)CC[C@@H]1[C@@]24OO3,IC50,Plasmodium falciparum [2],3.78 nM
same,ED50,Plasmodium berghei [8],5.08 mg/kg
same,IC50,Plasmodium falciparum [3],0.35 nM
C[C@H]1[C@H](OC(=O)c2ccc([N+](=O)[O-])cc2)O[C@@H]2O[C@@]3(C)CC[C@H]4[C@H](C)CC[C@@H]1[C@@]24OO3,IC50,Plasmodium falciparum [17],8.54 nM
CCO[C@H]1O[C@@H]2O[C@]3(C)CC[C@H]4[C@H](C)CC[C@@H]([C@H]1C)[C@@]24OO3,ED90,Plasmodium berghei [16],6 mg/kg
C[C@H]1[C@@H](OCc2ccc(CN3CCCC3)cc2)O[C@@H]2O[C@]3(C)CC[C@H]4[C@H](C)CC[C@@H]1[C@@]24OO3,IC50,Plasmodium falciparum [2],2.3 nM
same,IC50,Plasmodium falciparum [3],2.3 nM
N[C@H]1CC[C@@H](Oc2ccc([C@H]3CC[C@]4(CC3)OOC3(O4)C4CC5CC(C4)CC3C5)cc2)CC1 (some centres undefined),Activity,Plasmodium falciparum [10],<0.01%
FC1(F)C2CC3CC1CC(C2)C31OO[C@]2(CC[C@@H](c3ccc(OCCN4CCOCC4)cc3)CC2)O1 (some centres undefined),Activity,Plasmodium falciparum [10],<0.01%
CC1(OCc2ccccc2)CCC2CC1OO[C@]2(/C=C\c1ccc(F)cc1)c1ccccc1 (some centres undefined),IC50,Plasmodium falciparum [2],29 nM
C[C@H]1[C@H](N2CCN(C(=O)Nc3ccc(C(F)(F)F)cc3)CC2)O[C@@H]2O[C@]3(C)CC[C@H]4[C@H](C)CC[C@@H]1[C@@]24OO3,IC50,Plasmodium falciparum [12],12.2 nM
same,IC50,Plasmodium falciparum [13],1.83 nM
same,IC50,Plasmodium falciparum [14],1.12 nM
same,IC50,Plasmodium falciparum [11],0.6 nM
CC(=O)/C=C/N1C(=O)[C@H](C)[C@@H]2CC[C@@H](C)[C@@H]3CC[C@]4(C)OO[C@]32[C@H]1O4,Ratio IC50,Plasmodium falciparum [6],2.54
same,Ratio IC50,Plasmodium falciparum [7],1.25
CC1CC2CCC(C1)[C@@](C)(/C=C/[C@H](O)C(C)(C)O)OO2 (some centres undefined),ED50,Plasmodium yoelii,50 mg/kg
same,IC50,Plasmodium falciparum [14],115 nM
CC(=O)CN1C(=O)[C@H](C)[C@@H]2CC[C@@H](C)[C@@H]3CC[C@]4(C)OO[C@]32[C@H]1O4,Ratio IC50,Plasmodium falciparum [6],3.2
same,Ratio IC50,Plasmodium falciparum [7],3
